Reference: US20220289794A1, “SYNTHETIC ANTIMICROBIAL PEPTIDES” (priority 2019, published 2022)
≈ marks a conversion by molar mass, not a printed value. Non-standard residues stand in square brackets, D forms with d. Residues, ends and D or L forms follow the SMILES beside them. Dip = N[C@H](C(=O)O)C(c1ccccc1)c1ccccc1; 2Nal = N[C@@H](Cc1ccc2ccccc2c1)C(=O)O; d2Nal = N[C@H](Cc1ccc2ccccc2c1)C(=O)O; Dab = NCC[C@H](N)C(=O)O

Legend:
[1] = system: Methicillin-resistant Staphylococcus aureus MRSA (ATCC BAA-1556); details: ATCC BAA-1556
S. aureus ATCC 29213 = details: ATCC 29213
[2] = system: Pseudomonas aeruginosa (ATCC 27883); details: ATCC 27883
[3] = system: Escherichia coli (ATCC 25922); details: ATCC 25922
human red blood cells = system: human red blood cells; parameters: unit not given beside the values

SMILES	MIC MRSA ATCC BAA-1556 [1]	MIC S. aureus ATCC 29213 (S. aureus ATCC 29213)	MIC P. aeruginosa ATCC 27883 [2]	MIC E. coli ATCC 25922 [3]	HC50 (human red blood cells)
N=C(N)NCCC[C@@H]1NC(=O)[C@H](CCCNC(=N)N)NC(=O)[C@H](CCCNC(=N)N)NC(=O)[C@H](C(c2ccccc2)c2ccccc2)NC(=O)[C@H](C(c2ccccc2)c2ccccc2)NC(=O)[C@H](C(c2ccccc2)c2ccccc2)NC(=O)[C@H](CCCNC(=N)N)NC(=O)[C@H](CCCNC(=N)N)NC1=O [IFX-012, c[Arg-Arg-Arg-Arg-Arg-Dip-Dip-Dip]] (cyclo([Dip][Dip][Dip]RRRRR))	6.2 µg/mL (≈ 4.27 µM)	6.2 µg/mL (≈ 4.27 µM)	25 µg/mL (≈ 17.2 µM)	25 µg/mL (≈ 17.2 µM)	195
NCCCC[C@@H]1NC(=O)[C@H](CCCCN)NC(=O)[C@H](CCCCN)NC(=O)[C@H](C(c2ccccc2)c2ccccc2)NC(=O)[C@H](C(c2ccccc2)c2ccccc2)NC(=O)[C@H](C(c2ccccc2)c2ccccc2)NC(=O)[C@H](CCCCN)NC1=O [IFX-014, c[Lys-Lys-Lys-Lys-Dip-Dip-Dip]] (cyclo([Dip][Dip][Dip]KKKK))	12.5 µg/mL (≈ 10.6 µM)	12.5 µg/mL (≈ 10.6 µM)	>100 µg/mL	>100 µg/mL	415
N=C(N)NCCC[C@H](NC(=O)[C@H](CCCNC(=N)N)NC(=O)[C@H](Cc1ccc2ccccc2c1)NC(=O)[C@H](Cc1ccc2ccccc2c1)NC(=O)[C@H](CCCNC(=N)N)NC(=O)[C@@H](N)CCCNC(=N)N)C(=O)N[C@@H](Cc1ccc2ccccc2c1)C(=O)O [IFX-019-1, NH2-Arg-Arg-NaI-NaI-Arg-Arg-NaI-OH] (H-RR[2Nal][2Nal]RR[2Nal]-OH)	25 µg/mL (≈ 20.3 µM)	12.5 µg/mL (≈ 10.1 µM)	25 µg/mL (≈ 20.3 µM)	25 µg/mL (≈ 20.3 µM)	395
N=C(N)NCCC[C@H](NC(=O)[C@H](CCCNC(=N)N)NC(=O)[C@@H](N)CCCNC(=N)N)C(=O)N[C@H](C(=O)N[C@H](C(=O)N[C@@H](Cc1c[nH]c2ccccc12)C(=O)O)C(c1ccccc1)c1ccccc1)C(c1ccccc1)c1ccccc1 [IFX-022-1, NH2-R-R-R-Dip-Dip-Trp-OH] (H-RRR[Dip][Dip]W-OH)	12.5 µg/mL (≈ 11.2 µM)	12.5 µg/mL (≈ 11.2 µM)	50 µg/mL (≈ 44.7 µM)	25 µg/mL (≈ 22.3 µM)	380
N=C(N)NCCC[C@H](NC(=O)[C@H](CCCNC(=N)N)NC(=O)[C@@H](N)CCCNC(=N)N)C(=O)N[C@@H](CCCNC(=N)N)C(=O)N[C@H](C(=O)N[C@H](C(=O)N[C@H](C(=O)O)C(c1ccccc1)c1ccccc1)C(c1ccccc1)c1ccccc1)C(c1ccccc1)c1ccccc1 [IFX-008-1, NH2-Arg-Arg-Arg-Arg-Dip-Dip-Dip-OH] (H-RRRR[Dip][Dip][Dip]-OH)	3.1 µg/mL (≈ 2.36 µM)	3.1 µg/mL (≈ 2.36 µM)	6.2 µg/mL (≈ 4.72 µM)	6.2 µg/mL (≈ 4.72 µM)	210
N=C(N)NCCC[C@H]1NC(=O)[C@@H](CCCNC(=N)N)NC(=O)[C@@H](CCCNC(=N)N)NC(=O)[C@@H](Cc2c[nH]c3ccccc23)NC(=O)[C@@H](Cc2c[nH]c3ccccc23)NC(=O)[C@@H](Cc2c[nH]c3ccccc23)NC(=O)[C@@H](Cc2c[nH]c3ccccc23)NC(=O)[C@@H](CCCNC(=N)N)NC(=O)[C@@H](CCCNC(=N)N)NC1=O [IFX-037, c[arg-arg-arg-arg-arg-trp-trp-trp-trp]]	6.2 µg/mL (≈ 4.06 µM)	3.1 µg/mL (≈ 2.03 µM)	25 µg/mL (≈ 16.4 µM)	12.5 µg/mL (≈ 8.19 µM)	670
N=C(N)NCCC[C@@H]1NC(=O)[C@H](CCN)NC(=O)[C@@H](Cc2ccc3ccccc3c2)NC(=O)[C@@H](Cc2ccc3ccccc3c2)NC(=O)[C@H](Cc2c[nH]c3ccccc23)NC(=O)[C@@H](CCCNC(=N)N)NC(=O)[C@H](CCCNC(=N)N)NC(=O)[C@H](CCN)NC(=O)[C@@H](CCCNC(=N)N)NC1=O [IFX-058, c[Dab-Arg-arg-Dab-Arg-arg-Trp-naI-naI]] (cyclo([Dab]R[dR][Dab]R[dR]W[d2Nal][d2Nal]))	64 µg/mL (≈ 45.5 µM)	32 µg/mL (≈ 22.8 µM)	32 µg/mL (≈ 22.8 µM)	32 µg/mL (≈ 22.8 µM)	655
N=C(N)NCCC[C@H](NC(=O)[C@@H](NC(=O)[C@@H](NC(=O)[C@H](CCCNC(=N)N)NC(=O)[C@H](CCCNC(=N)N)NC(=O)[C@@H](NC(=O)[C@@H](N)CCCNC(=N)N)C(c1ccccc1)c1ccccc1)C(c1ccccc1)c1ccccc1)C(c1ccccc1)c1ccccc1)C(=O)O [IFX-016-1, NH2-Arg-Dip-Arg-Arg-Dip-Dip-Arg-OH] (H-R[Dip]RR[Dip][Dip]R-OH)	25 µg/mL (≈ 19 µM)	12.5 µg/mL (≈ 9.52 µM)	>100 µg/mL	25 µg/mL (≈ 19 µM)	320
N=C(N)NCCC[C@@H]1NC(=O)[C@H](CCCNC(=N)N)NC(=O)[C@H](CCCNC(=N)N)NC(=O)[C@H](C(c2ccccc2)c2ccccc2)NC(=O)[C@H](C(c2ccccc2)c2ccccc2)NC(=O)[C@H](Cc2c[nH]c3ccccc23)NC(=O)[C@H](CCCNC(=N)N)NC1=O [IFX-026, c[Arg-Arg-Arg-Arg-Trp-Dip-Dip]] (cyclo([Dip][Dip]RRRRW))					240
N=C(N)NCCC[C@@H]1NC(=O)[C@H](CCCNC(=N)N)NC(=O)[C@H](Cc2c[nH]c3ccccc23)NC(=O)[C@H](C(c2ccccc2)c2ccccc2)NC(=O)[C@H](C(c2ccccc2)c2ccccc2)NC(=O)[C@H](CCCNC(=N)N)NC(=O)[C@H](CCCNC(=N)N)NC1=O [IFX-028, c[Arg-Arg-Arg-Arg-Dip-Dip-Trp]] (cyclo([Dip][Dip]WRRRR))					370
N=C(N)NCCC[C@@H]1NC(=O)[C@H](CCCNC(=N)N)NC(=O)[C@H](CCCNC(=N)N)NC(=O)[C@H](C(c2ccccc2)c2ccccc2)NC(=O)[C@H](Cc2c[nH]c3ccccc23)NC(=O)[C@H](C(c2ccccc2)c2ccccc2)NC(=O)[C@H](CCCNC(=N)N)NC1=O [IFX-027, c[Arg-Arg-Arg-Arg-Dip-Trp-Dip]] (cyclo(RRRR[Dip]W[Dip]))					860
N=C(N)NCCC[C@@H]1NC(=O)[C@H](CCCNC(=N)N)NC(=O)[C@H](Cc2ccc3ccccc3c2)NC(=O)[C@H](Cc2ccc3ccccc3c2)NC(=O)[C@H](Cc2c[nH]c3ccccc23)NC(=O)[C@H](CCCNC(=N)N)NC1=O [IFX-023, c[Arg-Arg-Arg-Trp-NaI-NaI]] (cyclo(RRRW[2Nal][2Nal]))					175
N=C(N)NCCC[C@@H]1NC(=O)[C@H](CCCNC(=N)N)NC(=O)[C@H](Cc2ccc3ccccc3c2)NC(=O)[C@H](Cc2c[nH]c3ccccc23)NC(=O)[C@H](Cc2ccc3ccccc3c2)NC(=O)[C@H](CCCNC(=N)N)NC1=O [IFX-024, c[Arg-Arg-Arg-NaI-Trp-NaI]] (cyclo(RRR[2Nal]W[2Nal]))					250
N=C(N)NCCC[C@@H]1NC(=O)[C@H](CCCNC(=N)N)NC(=O)[C@H](Cc2c[nH]c3ccccc23)NC(=O)[C@H](C(c2ccccc2)c2ccccc2)NC(=O)[C@H](C(c2ccccc2)c2ccccc2)NC(=O)[C@H](CCCNC(=N)N)NC1=O [IFX-022, c[Arg-Arg-Arg-Dip-Dip-Trp]] (cyclo([Dip][Dip]WRRR))					215
